{"source": "patent US10144706B2", "about": "(BRISTOL-MYERS SQUIBB COMPANY, priority 2016, dated 2018)"}
{"target": "T1, PD-1/PD-L1 interaction (PD-1-Ig / PD-L1-His) (Homo sapiens, UniProt Q9NZQ7)", "T1 construct": "hPDL1(18-239)-TVMV-His; TVMV protease site linker (C); made in house; host or cells: HEK293T", "T1 sequence (Q9NZQ7 with tags, fused parts or gaps)": "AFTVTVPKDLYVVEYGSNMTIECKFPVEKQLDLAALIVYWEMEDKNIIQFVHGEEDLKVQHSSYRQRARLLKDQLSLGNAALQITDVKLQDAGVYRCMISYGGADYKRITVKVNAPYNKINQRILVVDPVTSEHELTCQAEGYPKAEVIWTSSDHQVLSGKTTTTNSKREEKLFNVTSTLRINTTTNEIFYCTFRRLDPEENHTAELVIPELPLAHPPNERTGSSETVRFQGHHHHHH", "test": "PD-1/PD-L1 Homogenous Time-Resolved Fluorescence (HTRF) binding assay", "conditions": "IC50 range class; PD-L1-His 10 nM, PD-1-Ig 20 nM; read-out: Range or IC50", "in_short": "(§1)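 HTRF detection used 1 nM europium-cryptate anti-Ig and 20 nM APC anti-His. Compounds first saw 10 nM PD-L1-His for 15 min, and 20 nM PD-1-Ig was then added for another 15 min. Buffer was dPBS plus 0.1% BSA and 0.05% Tween-20. All concentrations are final.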", "units": {"IC50": "nM"}}
{"smiles": "Cc1c(OCCCN(C)CCCN(C)CCCOc2cccc(-c3cccc(OCCCN4CC[C@@H](O)C4)c3C)c2C)cccc1-c1cccc(OCCCN2CC[C@@H](O)C2)c1C", "note": "[Example 2093, (3R,3′R)-1,1′-((((((propane-1,3-diylbis(methylazanediyl))bis(propane-3,1-diyl))bis(oxy))bis(2,2′-dimethyl-[1,1′-biphenyl]-3′,3-diyl))bis(oxy))bis(propane-3,1-diyl))bis(pyrrolidin-3-ol)]", "IC50": "20.1 to 90"}
{"smiles": "Cc1c(OCCCNC[C@@H](O)CO)cccc1-c1cccc(OCCCN2CC[C@@H](O)C2)c1C", "note": "[Example 2052, (R)-3-((3-((3′-(3-((R)-3-hydroxypyrrolidin-1-yl)propoxy)-2,2′-dimethyl-[1,1′-biphenyl]-3-yl)oxy)propyl)amino)propane-1,2-diol]", "IC50": "90.1 to 1000"}
{"smiles": "Cc1c(OCCCNCCc2ccccn2)cccc1-c1cccc(OCCCN2CC[C@@H](O)C2)c1C", "note": "[Example 2118, (R)-1-(3-((2,2′-dimethyl-3′-(3-((2-(pyridin-2-yl)ethyl)amino)propoxy)-[1,1′-biphenyl]-3-yl)oxy)propyl)pyrrolidin-3-ol]", "IC50": "20.1 to 90"}
{"smiles": "Cc1c(OCCCN(C)CC(O)CO)cccc1-c1cccc(OCCCN(C)CC(O)CO)c1C", "note": "(mixture of isomers) [Example 2078, 3,3′-((((2,2′-dimethyl-[1,1′-biphenyl]-3,3′-diyl)bis(oxy))bis(propane-3,1-diyl))bis(methylazanediyl))bis(propane-1,2-diol)]", "IC50": "0.04 to 20"}
{"smiles": "Cc1c(OCCCN2CC[C@@H](O)C2)cccc1-c1cccc(OCCCN2CCC[C@H](O)C2)c1C", "note": "[Example 2115, (S)-1-(3-((3′-(3-((R)-3-hydroxypyrrolidin-1-yl)propoxy)-2,2′-dimethyl-[1,1′-biphenyl]-3-yl)oxy)propyl)piperidin-3-ol]", "IC50": "20.1 to 90"}
{"smiles": "C[C@](CO)(NCc1cc(Cl)c(OCc2cccc(-c3cccc(COc4cc(OCc5cncc(C#N)c5)c(CO)cc4Cl)c3Cl)c2Cl)cc1OCc1cncc(C#N)c1)C(=O)O", "note": "[Example 50400]", "IC50": "0.04 to 20"}
{"smiles": "COc1ccccc1N1CCN(CCCOc2cccc(-c3cccc(OCCCN4CC[C@@H](O)C4)c3C)c2C)CC1", "note": "[Example 2111, (R)-1-(3-((3′-(3-(4-(2-methoxyphenyl)piperazin-1-yl)propoxy)-2,2′-dimethyl-[1,1′-biphenyl]-3-yl)oxy)propyl)pyrrolidin-3-ol]", "IC50": "20.1 to 90"}
{"smiles": "Cc1c(OCCCNC(CO)c2ccncc2)cccc1-c1cccc(OCCCN2CC[C@@H](O)C2)c1C", "note": "(stereo partly drawn) [Example 2047, (3R)-1-(3-((3′-(3-((2-hydroxy-1-(pyridin-4-yl)ethyl)amino)propoxy)-2,2′-dimethyl-[1,1′-biphenyl]-3-yl)oxy)propyl)pyrrolidin-3-ol]", "IC50": "90.1 to 1000"}
{"smiles": "Cc1c(OCCCNCC(O)CO)cccc1-c1cccc(OCCCN2CC[C@@H](O)C2)c1C", "note": "(mixture of isomers) [Example 2059, 3-((3-((3′-(3-((R)-3-hydroxypyrrolidin-1-yl)propoxy)-2,2′-dimethyl-[1,1′-biphenyl]-3-yl)oxy)propyl)amino)propane-1,2-diol]", "IC50": "0.04 to 20"}
{"smiles": "Cc1c(COc2cc(OCc3cncc(C#N)c3)c(CNC(C)(CO)CO)cc2Cl)cccc1-c1cccc(COc2cc(OCc3cncc(C#N)c3)c(CNC(C)(CO)CO)cc2Cl)c1C", "note": "[Example 40250]", "IC50": "0.04 to 20"}
{"smiles": "CCN(CC)CCCNCc1cc(Cl)c(OCc2cccc(-c3cccc(COc4cc(OCc5cncc(C#N)c5)c(CNCCCN(CC)CC)cc4Cl)c3)c2)cc1OCc1cncc(C#N)c1", "note": "[Example 40070]", "IC50": "0.04 to 20"}
{"smiles": "Cc1c(OCCCNCC(O)C(=O)O)cccc1-c1cccc(OCCCN2CC[C@@H](O)C2)c1C", "note": "(stereo partly drawn) [Example 2016, 2-hydroxy-3-((3-((3′-(3-((R)-3-hydroxypyrrolidin-1-yl)propoxy)-2,2′-dimethyl-[1,1′-biphenyl]-3-yl)oxy)propyl)amino)propanoic acid]", "IC50": "20.1 to 90"}
{"smiles": "Cc1c(OCCCN2CC[C@@H](O)C2)cccc1-c1cccc(OCCCN2CC[C@@H](O)C2)c1C", "note": "[Example 3001, (3R,3′R)-1,1′-(((2,2′-dimethyl-[1,1′-biphenyl]-3,3′-diyl)bis(oxy))bis(propane-3,1-diyl))bis(pyrrolidin-3-ol)]", "IC50": "0.04 to 20"}
{"smiles": "Cc1c(NCCCN2CC[C@@H](O)C2)cccc1-c1cccc(OCCCN2CC[C@@H](O)C2)c1C", "note": "[Example 3018, (R)-1-(3-((3′-(3-((R)-3-hydroxypyrrolidin-1-yl)propoxy)-2,2′-dimethyl-[1,1′-biphenyl]-3-yl)amino)propyl)pyrrolidin-3-ol]", "IC50": "90.1 to 1000"}
{"smiles": "N#Cc1cncc(COc2cc(OCc3cccc(-c4cccc(COc5cc(OCc6cncc(C#N)c6)c(C(=O)N6CCOCC6)cc5Cl)c4Cl)c3Cl)c(Cl)cc2C(=O)N2CCOCC2)c1", "note": "[Example 80050]", "IC50": "20.1 to 90"}
{"smiles": "Cc1c(COc2cc(OCc3cncc(C#N)c3)c(CNCC(O)CC(=O)O)cc2Cl)cccc1-c1cccc(COc2cc(OCc3cncc(C#N)c3)c(CNCC(O)CC(=O)O)cc2Cl)c1C", "note": "(stereo not drawn) [Example 40230]", "IC50": "0.04 to 20"}
{"smiles": "Cc1c(COc2cc(OCc3cncc(C#N)c3)c(CN[C@H](C(N)=O)C3CC3)cc2Cl)cccc1-c1cccc(COc2cc(OCc3cncc(C#N)c3)c(CN[C@H](C(N)=O)C3CC3)cc2Cl)c1C", "note": "[Example 40670]", "IC50": "20.1 to 90"}
{"smiles": "Cc1c(OCCCN[C@@H](CO)C(C)C)cccc1-c1cccc(OCCCN2CC[C@@H](O)C2)c1C", "note": "[Example 2055, (R)-1-(3-((3′-(3-(((R)-1-hydroxy-3-methylbutan-2-yl)amino)propoxy)-2,2′-dimethyl-[1,1′-biphenyl]-3-yl)oxy)propyl)pyrrolidin-3-ol]", "IC50": "90.1 to 1000"}
{"smiles": "Cc1c(COc2cc(OCc3cncc(C#N)c3)c(CN(CC(C)C)C(CCO)C(=O)O)cc2Cl)cccc1-c1cccc(COc2cc(OCc3cncc(C#N)c3)c(CN(CC(C)C)C(CCO)C(=O)O)cc2Cl)c1C", "note": "(stereo not drawn) [Example 40850]", "IC50": "0.04 to 20"}
{"smiles": "Cc1c(COc2cc(OCc3cncc(C#N)c3)c(CN[C@H](C(=O)O)[C@@H](C)OCc3ccccc3)cc2Cl)cccc1-c1cccc(COc2cc(OCc3cncc(C#N)c3)c(CN[C@H](C(=O)O)[C@@H](C)OCc3ccccc3)cc2Cl)c1C", "note": "[Example 41050]", "IC50": "20.1 to 90"}
{"smiles": "Cc1c(COc2cc(OCc3cncc(C#N)c3)c(CO)cc2Cl)cccc1-c1cccc(COc2cc(OCc3cncc(C#N)c3)c(CN[C@H](CO)CC(=O)O)cc2Cl)c1C", "note": "[Example 50330]", "IC50": "0.04 to 20"}
{"smiles": "Cc1cc(OCc2cccc(-c3cccc(COc4cc(C)c(CNCCC(=O)O)cc4Cl)c3C)c2C)c(Cl)cc1CNCCC(=O)O", "note": "[Example 5502, 3,3′-((((((2,2′-dimethyl-[1,1′-biphenyl]-3,3′-diyl)bis(methylene))bis(oxy))bis(5-chloro-2-methyl-4,1-phenylene))bis(methylene))bis(azanediyl))dipropionic acid]", "IC50": "0.04 to 20"}
{"smiles": "Cc1c(OCCCCN2CC[C@@H](O)C2)cccc1-c1cccc(OCCCN2CC[C@@H](O)C2)c1C", "note": "[Example 3002, (R)-1-(3-((3′-(4-((R)-3-hydroxypyrrolidin-1-yl)butoxy)-2,2′-dimethyl-[1,1′-biphenyl]-3-yl)oxy)propyl) pyrrolidin-3-ol]", "IC50": "0.04 to 20"}
{"smiles": "COc1ccc(CNCc2cc(Cl)c(OCc3cccc(-c4cccc(COc5cc(OCc6cncc(C#N)c6)c(CNCc6ccc(OC)cc6OC)cc5Cl)c4C)c3C)cc2OCc2cncc(C#N)c2)c(OC)c1", "note": "[Example 41230]", "IC50": "20.1 to 90"}
{"smiles": "Cc1c(COc2cc(OCc3cncc(C#N)c3)c(CNCCC(=O)O)cc2Cl)cccc1-c1cccc(COc2cc(OCc3cncc(C#N)c3)c(CNCCC(=O)O)cc2Cl)c1C", "note": "[Example 40410]", "IC50": "0.04 to 20"}
{"smiles": "Cc1c(COc2cc(OCc3cncc(C#N)c3)c(CO)cc2Cl)cccc1-c1cccc(COc2cc(OCc3cncc(C#N)c3)c(CNCC(O)C(=O)O)cc2Cl)c1C", "note": "(stereo not drawn) [Example 50300]", "IC50": "0.04 to 20"}
{"smiles": "Cc1c(OCCCN2CC[C@@H](O)C2)cccc1-c1cccc(OCC2CCCN(C)C2)c1C", "note": "(stereo partly drawn) [Example 3029, (3R)-1-(3-((2,2′-dimethyl-3′-((1-methylpiperidin-3-yl)methoxy)-[1,1′-biphenyl]-3-yl)oxy)propyl)pyrrolidin-3-ol]", "IC50": "0.04 to 20"}
{"smiles": "Cc1c(OCCCN(CCO)Cc2ccccc2)cccc1-c1cccc(OCCCN2CC[C@@H](O)C2)c1C", "note": "[Example 2072, (R)-1-(3-((3′-(3-(benzyl(2-hydroxyethyl)amino)propoxy)-2,2′-dimethyl-[1,1′-biphenyl]-3-yl)oxy)propyl)pyrrolidin-3-ol]", "IC50": "90.1 to 1000"}
{"smiles": "Cc1c(COc2cc(OCc3cncc(C#N)c3)c(CNC(Cc3c[nH]c4ccccc34)C(=O)O)cc2Cl)cccc1-c1cccc(COc2cc(OCc3cncc(C#N)c3)c(CNC(Cc3c[nH]c4ccccc34)C(=O)O)cc2Cl)c1C", "note": "(stereo not drawn) [Example 40460]", "IC50": "0.04 to 20"}
{"smiles": "Cc1c(OCCCN2CCN(c3ccccn3)CC2)cccc1-c1cccc(OCCCN2CC[C@@H](O)C2)c1C", "note": "[Example 2108, (R)-1-(3-((2,2′-dimethyl-3′-(3-(4-(pyridin-2-yl)piperazin-1-yl)propoxy)-[1,1′-biphenyl]-3-yl)oxy)propyl)pyrrolidin-3-ol]", "IC50": "90.1 to 1000"}
{"smiles": "COc1cc(OCc2cccc(-c3cccc(COc4cc(OC)c(CN(C)Cc5cc[nH]n5)cc4Cl)c3C)c2C)c(Cl)cc1CN(C)Cc1cc[nH]n1", "note": "[Example 5037, 1,1′-((((2,2′-dimethyl-[1,1′-biphenyl]-3,3′-diyl)bis(methylene))bis(oxy))bis(5-chloro-2-methoxy-4,1-phenylene))bis(N-((1H-pyrazol-3-yl)methyl)-N-methylmethanamine)]", "IC50": "20.1 to 90"}
{"smiles": "Cc1c(OCCCN2CC[C@@H](O)C2)cccc1-c1cccc(S(=O)(=O)NCCC(=O)O)c1C", "note": "[Example 3020, (R)-3-(3′-(3-(3-hydroxypyrrolidin-1-yl)propoxy)-2,2′-dimethyl-[1,1′-biphenyl]-3-ylsulfonamido)propanoic acid]", "IC50": "1000 to 10000"}
{"target": "T1, PD-1/PD-L1 interaction (PD-1-Ig / PD-L1-His)", "test": "PD-1/PD-L1 Homogenous Time-Resolved Fluorescence (HTRF) binding assay", "conditions": "numeric IC50; PD-L1-His 10 nM, PD-1-Ig 20 nM; read-out: Range or IC50", "in_short": "as §1", "units": {"IC50": "nM"}}
{"smiles": "Cc1c(OCCCNC[C@H](O)c2ccccc2)cccc1-c1cccc(OCCCN2CC[C@@H](O)C2)c1C", "note": "[Example 2112, (R)-1-(3-((3′-(3-(((R)-2-hydroxy-2-phenylethyl)amino)propoxy)-2,2′-dimethyl-[1,1′-biphenyl]-3-yl)oxy)propyl)pyrrolidin-3-ol]", "IC50": 81}
